Data on 14 molecules can be found in US7183260B2, “C-terminal modified oxamyl dipeptides as inhibitors of the ICE/ced-3 family of cysteine proteases” (Idun Pharmaceuticals, Inc., priority 1998, dated 2007).

What all share (format): biochemical
Holding throughout (conditions): continuous assay 60 min, reaction initiated by adding enzyme to substrate-inhibitor mixture

The target in one assay is T1, mICE (Mus musculus, UniProt P29452).
T1 sequence (P29452 123-296 limits assumed): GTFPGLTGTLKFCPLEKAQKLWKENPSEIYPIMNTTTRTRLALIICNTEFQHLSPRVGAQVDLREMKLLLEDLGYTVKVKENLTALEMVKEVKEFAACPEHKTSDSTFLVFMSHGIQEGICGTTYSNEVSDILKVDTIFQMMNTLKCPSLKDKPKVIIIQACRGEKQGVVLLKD
T1 sequence (P29452 315-402 limits assumed): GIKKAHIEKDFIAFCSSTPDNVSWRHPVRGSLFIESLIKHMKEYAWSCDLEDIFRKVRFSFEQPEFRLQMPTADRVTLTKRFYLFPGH
As to the kind of experiment: Dissociation constant Ki and irreversible rate constant k3 for irreversible inhibitors (ICE).

The next assay has as its target T2, CPP32 (Homo sapiens, UniProt P42574).
T2 sequence (P42574 29-175 limits assumed): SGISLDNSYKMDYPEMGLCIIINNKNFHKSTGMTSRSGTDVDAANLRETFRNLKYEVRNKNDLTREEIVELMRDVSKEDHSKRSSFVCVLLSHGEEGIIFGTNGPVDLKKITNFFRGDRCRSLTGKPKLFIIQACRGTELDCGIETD
T2 sequence (P42574 176-277 limits assumed): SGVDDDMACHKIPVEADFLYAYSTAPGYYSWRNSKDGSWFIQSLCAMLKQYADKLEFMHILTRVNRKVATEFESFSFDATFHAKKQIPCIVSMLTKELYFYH
As to the kind of experiment: Dissociation constant Ki and irreversible rate constant k3 for irreversible inhibitors (CPP32).

The target in the next assay is T3, MCH-2 (Homo sapiens, UniProt P55212).
T3 sequence (P55212 24-179 limits assumed): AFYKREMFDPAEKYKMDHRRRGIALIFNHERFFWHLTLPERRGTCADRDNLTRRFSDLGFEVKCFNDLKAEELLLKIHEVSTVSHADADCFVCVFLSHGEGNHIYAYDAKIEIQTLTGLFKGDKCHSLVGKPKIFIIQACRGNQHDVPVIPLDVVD
T3 sequence (P55212 194-293 limits assumed): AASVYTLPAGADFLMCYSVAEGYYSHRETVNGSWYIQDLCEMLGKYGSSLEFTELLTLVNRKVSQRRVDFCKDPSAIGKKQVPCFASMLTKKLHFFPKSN
The assay is described as follows: Dissociation constant Ki and irreversible rate constant k3 for irreversible inhibitors (Mch2).

The target in a further assay is MCH-5 (Homo sapiens, UniProt Q14790). The assay is described as follows: Dissociation constant Ki and irreversible rate constant k3 for irreversible inhibitors (Mch5).
Sequence of MCH-5 (Q14790 217-374 limits assumed, species assumed): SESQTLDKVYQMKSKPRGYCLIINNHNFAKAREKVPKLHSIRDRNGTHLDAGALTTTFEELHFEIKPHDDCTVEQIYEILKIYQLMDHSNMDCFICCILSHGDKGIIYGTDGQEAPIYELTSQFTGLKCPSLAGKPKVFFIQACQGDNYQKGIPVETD
Sequence of MCH-5 (Q14790 385-479 limits assumed, species assumed): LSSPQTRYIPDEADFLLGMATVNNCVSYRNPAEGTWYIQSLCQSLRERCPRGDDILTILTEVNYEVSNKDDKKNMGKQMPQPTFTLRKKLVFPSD

As to `CC(C)[C@H](NC(=O)C(=O)Nc1cccc2ccccc12)C(=O)NC(CC(=O)O)C(=O)CF` (mixture of isomers) [Example 3, (3RS)-3-[N-(N′-(1-NAPHTHYL)OXAMYL)VALINYL]AMINO-5-FLUORO-4-OXOPEINTANOIC ACID], on mICE, the Ki was 1.8 nM and the “mICE k3/Ki” value is 2,170,000 moles^−1 seconds^−1. For the same molecule, on CPP32, the “CPP32 k3/Ki” value is listed as 413,000 moles^−1 seconds^−1 and the Ki is 32 nM. On MCH-2, the Ki is 17 nM and the “MCH-2 k3/Ki” value is 199,000 moles^−1 seconds^−1. On MCH-5, the Ki worked out at 1.3 nM and the “MCH-5 k3/Ki” value is 1,160,000 moles^−1 seconds^−1.
`CC(C)[C@H](NC(=O)C(=O)Nc1cccc2ccccc12)C(=O)N[C@@H](CC(=O)O)C(=O)COc1ccc(O)cc1` [Example 15]: at mICE, the Ki was found to be 6.1 nM and the “mICE k3/Ki” value is on record as 1,840,000 moles^−1 seconds^−1. Further, on CPP32, the “CPP32 k3/Ki” value is recorded as 286,000 moles^−1 seconds^−1 and the Ki was determined as 42 nM. For the same molecule, at MCH-2, the Ki worked out at 37 nM and the “MCH-2 k3/Ki” value is 69,100 moles^−1 seconds^−1. Also, at MCH-5, the Ki is 5.7 nM and the “MCH-5 k3/Ki” value is given as 625,000 moles^−1 seconds^−1.
As for `C[C@H](NC(=O)C(=O)NCCc1ccccc1)C(=O)N[C@@H](CC(=O)O)C(=O)COP(=O)(c1ccccc1)c1ccccc1` [Example 72], on mICE, the Ki came out at 12 nM and the “mICE k3/Ki” value is 1,230,000 moles^−1 seconds^−1. Further, on CPP32, the “CPP32 k3/Ki” value is given as 169,000 moles^−1 seconds^−1 and the Ki worked out at 94 nM. Also, on MCH-2, the Ki came to 26 nM and the “MCH-2 k3/Ki” value is listed as 131,000 moles^−1 seconds^−1. For the same molecule, at MCH-5, the Ki turned out to be 8.1 nM and the “MCH-5 k3/Ki” value is recorded as 667,000 moles^−1 seconds^−1.
In the case of `CC(C)[C@H](NC(=O)C(=O)Nc1ccccc1F)C(=O)N[C@@H](CC(=O)O)C(=O)COc1c(F)c(F)cc(F)c1F` [Example 90], on mICE, the Ki is 147 nM and the “mICE k3/Ki” value is on record as 58,500 moles^−1 seconds^−1. Moreover, at CPP32, the “CPP32 k3/Ki” value is listed as 5,560 moles^−1 seconds^−1 and the Ki was found to be 2270 nM. Further, at MCH-2, the Ki came out at 221 nM and the “MCH-2 k3/Ki” value is 11,200 moles^−1 seconds^−1. Also, on MCH-5, the Ki came to 40 nM and the “MCH-5 k3/Ki” value is reported as 49,600 moles^−1 seconds^−1.
Consider `C[C@H](NC(=O)C(=O)NC1CCCCC1)C(=O)N[C@@H](CC(=O)O)C(=O)COP(=O)(c1ccccc1)c1ccccc1` [Example 56], for which, at mICE, the Ki was 5.3 nM and the “mICE k3/Ki” value is given as 2,032,000 moles^−1 seconds^−1. Further, on CPP32, the “CPP32 k3/Ki” value is on record as 137,000 moles^−1 seconds^−1 and the Ki worked out at 96 nM. At MCH-2, the Ki turned out to be 25 nM and the “MCH-2 k3/Ki” value is given as 97,500 moles^−1 seconds^−1. On MCH-5, the Ki stood at 2.5 nM and the “MCH-5 k3/Ki” value is 1,790,000 moles^−1 seconds^−1.
Take `CC(C)[C@H](NC(=O)C(=O)Nc1cccc2ccccc12)C(=O)N[C@@H](CC(=O)O)C(=O)COc1ccnc(C(F)(F)F)n1` [Example 12]: the Ki is 7.2 nM on mICE, 64 nM on CPP32, 95 nM at MCH-2 and 12 nM on MCH-5.
Take `C[C@H](NC(=O)C(=O)Nc1cc(C(F)(F)F)ccc1N1CCOCC1)C(=O)N[C@@H](CC(=O)O)C(=O)COP(=O)(c1ccccc1)c1ccccc1` [Example 45]: on mICE, the Ki stood at 19 nM and the “mICE k3/Ki” value is 369,000 moles^−1 seconds^−1. Further, at CPP32, the “CPP32 k3/Ki” value was 100,000 moles^−1 seconds^−1 and the Ki was determined as 112 nM. Moreover, at MCH-2, the Ki amounted to 19 nM and the “MCH-2 k3/Ki” value was 98,500 moles^−1 seconds^−1. In addition, at MCH-5, the Ki was found to be 8 nM and the “MCH-5 k3/Ki” value is given as 441,000 moles^−1 seconds^−1.
As to `C[C@H](NC(=O)C(=O)Nc1ccccc1C(C)(C)C)C(=O)N[C@@H](CC(=O)O)C(=O)COP(=O)(c1ccccc1)c1ccccc1` [Example 47], at mICE, the Ki amounted to 14 nM and the “mICE k3/Ki” value is recorded as 625,000 moles^−1 seconds^−1. Besides, at CPP32, the “CPP32 k3/Ki” value was 395,000 moles^−1 seconds^−1 and the Ki was 24 nM. In addition, on MCH-2, the Ki is 11 nM and the “MCH-2 k3/Ki” value is 484,000 moles^−1 seconds^−1. Further, at MCH-5, the Ki was 8.7 nM and the “MCH-5 k3/Ki” value was 589,000 moles^−1 seconds^−1.
`C[C@H](NC(=O)C(=O)Nc1ccccc1-c1ccccc1)C(=O)N[C@@H](CC(=O)O)C(=O)COP(=O)(c1ccccc1)c1ccccc1` [Example 30]: at mICE, the Ki worked out at 22 nM and the “mICE k3/Ki” value is 345,000 moles^−1 seconds^−1. On CPP32, the “CPP32 k3/Ki” value is 243,000 moles^−1 seconds^−1 and the Ki stood at 42 nM. Also, at MCH-2, the Ki was determined as 25 nM and the “MCH-2 k3/Ki” value was 317,000 moles^−1 seconds^−1. At MCH-5, the Ki stood at 24 nM and the “MCH-5 k3/Ki” value is 207,000 moles^−1 seconds^−1.
Take `CC(C)[C@H](NC(=O)C(=O)Nc1cccc2ccccc12)C(=O)N[C@@H](CC(=O)O)C(=O)COc1c(F)cccc1F` [Example 5]: the Ki at mICE came to 7.4 nM; at CPP32 it was 41 nM; on MCH-2, 25 nM; at MCH-5, 5 nM.
On the same counts, the results for `CC(C)[C@H](NC(=O)C(=O)Nc1cccc2ccccc12)C(=O)N[C@@H](CC(=O)O)C(=O)COc1c(F)c(F)cc(F)c1F` [Example 7] are 5.7 nM, 46 nM, 16 nM and 3.7 nM.
Turning to `C[C@H](NC(=O)C(=O)NCc1ccccc1)C(=O)N[C@@H](CC(=O)O)C(=O)COC(=O)c1c(Cl)cccc1Cl` [Example 52], at mICE, the Ki was found to be 340 nM and the “mICE k3/Ki” value is 59,100 moles^−1 seconds^−1. At CPP32, the “CPP32 k3/Ki” value is listed as 600,000 moles^−1 seconds^−1 and the Ki worked out at 29 nM. At MCH-2, the Ki amounted to 20 nM and the “MCH-2 k3/Ki” value is reported as 244,000 moles^−1 seconds^−1. Further, on MCH-5, the Ki was 62 nM and the “MCH-5 k3/Ki” value is 203,000 moles^−1 seconds^−1.
Consider `C[C@H](NC(=O)C(=O)Nc1ccccc1-c1ccccc1)C(=O)N[C@@H](CC(=O)O)C(=O)COC(=O)c1c(Cl)cccc1Cl` [Example 29], for which, on mICE, the Ki turned out to be 38 nM and the “mICE k3/Ki” value is 259,000 moles^−1 seconds^−1. Moreover, at CPP32, the “CPP32 k3/Ki” value is 388,000 moles^−1 seconds^−1 and the Ki was determined as 15 nM. In addition, at MCH-2, the Ki is 9 nM and the “MCH-2 k3/Ki” value is given as 219,000 moles^−1 seconds^−1. On MCH-5, the Ki is 17 nM and the “MCH-5 k3/Ki” value is on record as 125,000 moles^−1 seconds^−1.
As to `C[C@H](NC(=O)C(=O)Nc1cccc2c1CCCC2)C(=O)N[C@@H](CC(=O)O)C(=O)COc1c(F)c(F)cc(F)c1F` [Example 50], on mICE, the Ki is 640 nM and the “mICE k3/Ki” value is 22,000 moles^−1 seconds^−1. Moreover, on CPP32, the “CPP32 k3/Ki” value is reported as 118,000 moles^−1 seconds^−1 and the Ki amounted to 129 nM. Besides, on MCH-2, the Ki was 72 nM and the “MCH-2 k3/Ki” value was 64,100 moles^−1 seconds^−1. On MCH-5, the Ki came out at 74 nM and the “MCH-5 k3/Ki” value is listed as 46,200 moles^−1 seconds^−1.
